In patent US11046699B2, “Pyrazolo-pyrimidin-amino-cycloalkyl compounds and their therapeutic uses” (RAPT THERAPEUTICS, INC., priority 2018, dated 2021):
Read-outs that look alike come from different tables or passages of the source.

Target: GCN2 (Homo sapiens, UniProt Q9P2K8)
Assay: GCN2 enzymatic endpoint assay: phosphorylation of GFP-eIF2α measured by TR-FRET (Lanthascreen)
Type: biochemical
Summary of the method: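 Reaction started with 2 μM ATP and 80 nM GFP-labelled eIF2α substrate at room temperature, stopped with EDTA after 90 minutes. Phospho-eIF2α detected by terbium-labelled antibody TR-FRET; activity taken as 520 nm (fluorescein) to 495 nm (terbium) emission ratio.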

[1] = tested as described in Example 77, compound and/or hydrochloride, dihydrochloride or trifluoroacetic acid salt, read-out: IC 50 Activity
[2] = GCN2 biochemical IC50, 4 nM GCN2, 2 μM ATP, 80 nM GFP-eIF2α, 90 min RT, read-out: GCN2 activity

Sequence of GCN2 (Q9P2K8 whole entry): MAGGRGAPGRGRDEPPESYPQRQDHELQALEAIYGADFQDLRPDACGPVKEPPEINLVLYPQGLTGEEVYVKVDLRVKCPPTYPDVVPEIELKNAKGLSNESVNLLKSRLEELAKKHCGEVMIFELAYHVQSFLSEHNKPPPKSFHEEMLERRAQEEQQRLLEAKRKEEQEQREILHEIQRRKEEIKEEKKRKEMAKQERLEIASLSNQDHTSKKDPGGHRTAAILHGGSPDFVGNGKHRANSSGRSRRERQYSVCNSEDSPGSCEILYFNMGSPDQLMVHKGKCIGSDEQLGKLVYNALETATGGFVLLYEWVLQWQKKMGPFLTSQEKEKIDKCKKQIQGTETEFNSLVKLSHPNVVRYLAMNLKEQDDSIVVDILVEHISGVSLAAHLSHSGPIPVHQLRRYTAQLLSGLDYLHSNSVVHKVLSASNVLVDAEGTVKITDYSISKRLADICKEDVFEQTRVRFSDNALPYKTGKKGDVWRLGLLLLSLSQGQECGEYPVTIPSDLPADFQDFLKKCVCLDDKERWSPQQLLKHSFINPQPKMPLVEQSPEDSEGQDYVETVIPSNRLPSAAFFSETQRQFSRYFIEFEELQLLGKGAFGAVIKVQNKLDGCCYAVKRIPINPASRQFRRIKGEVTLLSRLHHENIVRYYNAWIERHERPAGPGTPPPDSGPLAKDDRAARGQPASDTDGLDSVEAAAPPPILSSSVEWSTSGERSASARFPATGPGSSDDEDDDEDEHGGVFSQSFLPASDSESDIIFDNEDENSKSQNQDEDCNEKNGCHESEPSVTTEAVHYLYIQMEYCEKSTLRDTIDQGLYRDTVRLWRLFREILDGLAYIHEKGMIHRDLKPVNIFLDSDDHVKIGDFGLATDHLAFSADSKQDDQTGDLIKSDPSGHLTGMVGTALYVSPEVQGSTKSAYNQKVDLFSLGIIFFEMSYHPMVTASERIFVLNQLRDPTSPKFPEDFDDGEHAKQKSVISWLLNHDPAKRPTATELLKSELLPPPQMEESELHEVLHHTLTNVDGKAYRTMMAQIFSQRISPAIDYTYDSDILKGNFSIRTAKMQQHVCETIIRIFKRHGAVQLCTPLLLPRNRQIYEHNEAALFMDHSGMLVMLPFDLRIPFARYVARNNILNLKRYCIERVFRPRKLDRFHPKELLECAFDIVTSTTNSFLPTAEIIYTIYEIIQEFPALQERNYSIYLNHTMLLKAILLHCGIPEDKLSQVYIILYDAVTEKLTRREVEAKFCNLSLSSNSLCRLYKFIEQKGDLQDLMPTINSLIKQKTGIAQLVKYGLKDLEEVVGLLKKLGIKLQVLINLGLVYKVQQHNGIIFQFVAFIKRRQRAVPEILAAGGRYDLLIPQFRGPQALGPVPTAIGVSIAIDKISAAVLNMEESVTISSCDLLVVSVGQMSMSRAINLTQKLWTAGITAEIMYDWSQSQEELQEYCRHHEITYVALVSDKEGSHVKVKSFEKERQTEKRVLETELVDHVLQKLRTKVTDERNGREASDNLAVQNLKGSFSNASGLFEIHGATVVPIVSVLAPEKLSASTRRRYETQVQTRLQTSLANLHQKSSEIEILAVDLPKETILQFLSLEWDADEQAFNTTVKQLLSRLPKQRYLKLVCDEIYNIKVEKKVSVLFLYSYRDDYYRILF

N#Cc1cc(-n2nc(Br)c3cnc(N[C@@H]4CC[C@@H](C(=O)NC5CCC(C#N)C5)C4)nc32)cc2cccnc12 (stereo partly drawn)
IC50 [1]: 0.025 to 0.2 µM

CNC(=O)[C@]1(C)CC[C@@H](Nc2ncc3c(Br)nn(-c4ccc(-c5ncco5)c(C5CCCNC5)c4)c3n2)C1 (stereo partly drawn) [(1R,3R)-3-[[3-bromo-1-[4-oxazol-2-yl-3-(3-piperidyl)phenyl]pyrazolo[3,4-d]pyrimidin-6-yl]amino]-N,1-dimethyl-cyclopentanecarboxamide]
IC50 [1]: 0.025 to 0.2 µM

CNC(=O)C1(CCC#N)CC[C@@H](Nc2ncc3c(Br)nn(-c4ccc(-c5nnc(C)s5)cc4)c3n2)C1 (stereo partly drawn) [(3R)-3-[[3-bromo-1-[4-(5-methyl-1,3,4-thiadiazol-2-yl)phenyl]pyrazolo[3,4-d]pyrimidin-6-yl]amino]-1-(2-cyanoethyl)-N-methyl-cyclopentanecarboxamide]
IC50 [1]: 0.025 to 0.2 µM

CC1(C(=O)NCC(F)F)CC[C@@H](Nc2ncc3c(Br)nn(-c4cc(F)c5ncccc5c4)c3n2)C1 (stereo partly drawn) [(3R)-3-[[3-bromo-1-(8-fluoro-6-quinolyl)pyrazolo[3,4-d]pyrimidin-6-yl]amino]-N-(2,2-difluoroethyl)-1-methyl-cyclopentane-carboxamide]
IC50 [1]: 0.025 to 0.2 µM

O=C(O)[C@@H]1CCC[C@@H](Nc2ncc3c(Br)nn(-c4ccc5ncccc5c4)c3n2)C1 [(1R,3R)-3-((3-bromo-1-(quinolin-6-yl)-1H-pyrazolo[3,4-d]pyrimidin-6-yl)amino) cyclohexane-1-carboxylic acid]
IC50 [1]: 0.5 to 1 µM

CNC(=O)[C@]1(C)CC[C@@H](Nc2ncc3c(Br)nn(-c4ccc5c(c4)CN(S(C)(=O)=O)C5)c3n2)C1 [Example 61, (1R,3R)-3-((3-bromo-1-(2-(methylsulfonyl)isoindolin-5-yl)-1H-pyrazolo[3,4-d]pyrimidin-6-yl)amino)-N,1-dimethylcyclopentane-1-carboxamide]
IC50 [2]: 0.025 to 0.2 µM

Cc1nnc(-c2ccc(-n3nc(Br)c4cnc(N[C@@H]5CC[C@@H](NC(=O)C6CC(C)(O)C6)C5)nc43)cc2)s1 (stereo partly drawn) [N-[(1R,3R)-3-[[3-bromo-1-[4-(5-methyl-1,3,4-thiadiazol-2-yl)phenyl]pyrazolo [3,4-d]pyrimidin-6-yl]amino]cyclopentyl]-3-hydroxy-3-methyl-cyclobutane-carboxamide]
IC50 [1]: 0.025 to 0.2 µM

N#Cc1cc(-n2nc(Br)c3cnc(N[C@@H]4CC[C@@H](C(=O)NC5CCS(=O)(=O)CC5)C4)nc32)cc2cccnc12 [(1R,3R)-3-((3-bromo-1-(8-cyanoquinolin-6-yl)-1H-pyrazolo[3,4-d]pyrimidin-6-yl)amino)-N-(1,1-dioxidotetrahydro-2H-thiopyran-4-yl)cyclopentane-1-carboxamide]
IC50 [1]: 0.025 to 0.2 µM

CNC(=O)[C@]1(C)CC[C@@H](Nc2ncc3c(Br)nn(-c4ccc(-c5ncco5)c(NC(=O)CCN)c4)c3n2)C1 [(1R,3R)-3-[[1-[3-(3-aminopropanoyl-amino)-4-oxazol-2-yl-phenyl]-3-bromo-pyrazolo[3,4-d]pyrimidin-6-yl]amino]-N,1-dimethyl-cyclopentane-carboxamide]
IC50 [1]: < 0.025 µM

COCCNC(=O)[C@@H]1CC[C@@H](Nc2ncc3c(Br)nn(-c4cc(F)c5ncccc5c4)c3n2)C1 [(1R,3R)-3-((3-bromo-1-(8-fluoroquinolin-6-yl)-1H-pyrazolo[3,4-d]pyrimidin-6-yl)amino)-N-(2-methoxyethyl)cyclopentane-1-carboxamide]
IC50 [1]: 0.025 to 0.2 µM

CNC(=O)[C@]1(C)CC[C@@H](Nc2ncc3c(Br)nn(-c4ccc5c(c4)SCC(=O)N5C)c3n2)C1 [(1R,3R)-3-[[3-bromo-1-(4-methyl-3-oxo-1,4-benzothiazin-7-yl)pyrazolo[3,4-d]pyrimidin-6-yl]amino]-N,1-dimethyl-cyclopentanecarboxamide]
IC50 [1]: 0.025 to 0.2 µM

CNC(=O)[C@]1(C)CC[C@@H](Nc2ncc3c(Br)nn(-c4ccc(-c5ncco5)c(NC(=O)CC#N)c4)c3n2)C1 [(1R,3R)-3-[[3-bromo-1-[3-[(2-cyanoacetyl)amino]-4-oxazol-2-yl-phenyl]pyrazolo [3,4-d]pyrimidin-6-yl]amino]-N,1-dimethyl-cyclopentanecarboxamide]
IC50 [1]: 0.025 to 0.2 µM

CNC(=O)[C@]1(C)CC[C@@H](Nc2ncc3c(Br)nn(-c4cc(Cl)c(F)c(CN)c4)c3n2)C1
IC50 [1]: 0.025 to 0.2 µM

Cc1nnc(-c2ccc(-n3nc(Br)c4cnc(N[C@@H]5CC[C@@](C)(C(=O)N6CCCC6)C5)nc43)cc2)s1 [[(1R,3R)-3-[[3-bromo-1-[4-(5-methyl-1,3,4-thiadiazol-2-yl)phenyl]pyrazolo[3,4-d]pyrimidin-6-yl]amino]-1-methyl-cyclopentyl]-pyrrolidin-1-yl-methanone]
IC50 [1]: 0.025 to 0.2 µM

Brc1nn(-c2ccc3ncccc3c2)c2nc(N[C@@H]3CCC(N4CCOCC4)C3)ncc12 (mixture of isomers) [Example 7, 3-bromo-N-(3-morpholinocyclopentyl)-1-(quinolin-6-yl)-1H-pyrazolo[3,4-d]pyrimidin-6-amine]
IC50 [2]: 0.025 to 0.2 µM

CNC(=O)[C@]1(C)CC[C@@H](Nc2ncc3c(Br)nn(-c4cc(Cl)cc(CC#N)c4)c3n2)C1 [(1R,3R)-3-[[3-bromo-1-[3-chloro-5-(cyanomethyl)phenyl]pyrazolo[3,4-d]pyrimidin-6-yl]amino]-N,1-dimethyl-cyclopentanecarboxamide]
IC50 [1]: 0.025 to 0.2 µM

N#Cc1cc(-n2nc(Br)c3cnc(N[C@@H]4CC[C@@H](C(=O)N5CCN(C(=O)CO)CC5)C4)nc32)cc2cccnc12 [6-(3-bromo-6-(((1R,3R)-3-(4-(2-hydroxyacetyl)piperazine-1-carbonyl)cyclopentyl)amino)-1H-pyrazolo[3,4-d]pyrimidin-1-yl)quinoline-8-carbonitrile]
IC50 [1]: 0.025 to 0.2 µM

CC1(C(=O)N2CNC(=O)C2)CC[C@@H](Nc2ncc3c(Br)nn(-c4cc(F)c5ncccc5c4)c3n2)C1 (stereo partly drawn) [1-[(3R)-3-[[3-bromo-1-(8-fluoro-6-quinolyl)pyrazolo[3,4-d]pyrimidin-6-yl]amino]-1-methyl-cyclopentanecarbonyl]imidazolidin-4-one]
IC50 [1]: < 0.025 µM

CNS(=O)(=O)C1CC[C@@H](Nc2ncc3c(Br)nn(-c4cc(Cl)cc([C@H](C)N)c4)c3n2)C1 (stereo partly drawn)
IC50 [1]: 0.025 to 0.2 µM

CNC(=O)[C@]1(C)CC[C@@H](Nc2ncc3c(Br)nn(-c4cc(C5CNC5)c5ncccc5c4)c3n2)C1 [(1R,3R)-3-[[1-[8-(azetidin-3-yl)-6-quinolyl]-3-bromo-pyrazolo[3,4-d]pyrimidin-6-yl]amino]-N,1-dimethyl-cyclopentane-carboxamide]
IC50 [1]: 0.025 to 0.2 µM

CNC(=O)[C@]1(C)CC[C@@H](Nc2ncc3c(Br)nn(-c4cc(OCCO)c5c(c4)OCC(=O)N5C)c3n2)C1 [(1R,3R)-3-[[3-bromo-1-[5-(2-hydroxyethoxy)-4-methyl-3-oxo-1,4-benzoxazin-7-yl]pyrazolo [3,4-d]pyrimidin-6-yl]amino]-N,1-dimethyl-cyclopentanecarboxamide]
IC50 [1]: < 0.025 µM

CNC(=O)[C@]1(C)CC[C@@H](Nc2ncc3c(Br)nn(-c4ccc5c(c4)OCC(=O)N5CC#N)c3n2)C1 [(1R,3R)-3-[[3-bromo-1-[4-(cyanomethyl)-3-oxo-1,4-benzoxazin-7-yl]pyrazolo[3,4-d]pyrimidin-6-yl]amino]-N,1-dimethyl-cyclopentanecarboxamide]
IC50 [1]: 0.025 to 0.2 µM

CNC(=O)[C@]1(C)CC[C@@H](Nc2ncc3c(Br)nn(-c4cc(CCC(=O)O)c5ncccc5c4)c3n2)C1 [3-[6-[3-bromo-6-[[(1R,3R)-3-methyl-3-(methylcarbamoyl)cyclopentyl]amino]pyrazolo[3,4-d]pyrimidin-1-yl]-8-quinolyl]propanoic acid]
IC50 [1]: < 0.025 µM

CNC(=O)[C@]1(C)CC[C@@H](Nc2ncc3c(Br)nn(-c4cccc(NC(=O)c5ccn[nH]5)c4)c3n2)C1 [N-[3-[3-bromo-6-[[(1R,3R)-3-methyl-3-(methylcarbamoyl)cyclopentyl]amino]pyrazolo[3,4-d]pyrimidin-1-yl]phenyl]-1H-pyrazole-5-carboxamide]
IC50 [1]: 0.025 to 0.2 µM

Cc1nnc(-c2ccc(-n3nc(Br)c4cnc(N[C@@H]5CC[C@](C(=O)N6CCNCC6)(C(C)C)C5)nc43)cc2CCC#N)s1 [3-[5-[3-bromo-6-[[(1R,3R)-3-isopropyl-3-(piperazine-1-carbonyl)cyclopentyl]amino]pyrazolo[3,4-d]pyrimidin-1-yl]-2-(5-methyl-1,3,4-thiadiazol-2-yl)phenyl] propanenitrile]
IC50 [1]: < 0.025 µM

CNC(=O)[C@H]1CC[C@@H](Nc2ncc3c(Br)nn(-c4cnc5c(C#N)cccc5c4)c3n2)C1 [(1S,3R)-3-[[3-bromo-1-(8-cyano-3-quinolyl)pyrazolo[3,4-d]pyrimidin-6-yl]amino]-N-methyl-cyclopentanecarboxamide]
IC50 [1]: 0.025 to 0.2 µM

CNC(=O)C1(C)CC[C@@H](Nc2ncc3c(Br)nn(-c4ccc5nc(C(C)(C)O)ccc5c4)c3n2)C1 (stereo partly drawn) [(3R)-3-[[3-bromo-1-[2-(1-hydroxy-1-methyl-ethyl)-6-quinolyl]pyrazolo[3,4-d]pyrimidin-6-yl]amino]-N,1-dimethyl-cyclopentane-carboxamide]
IC50 [1]: 0.025 to 0.2 µM

CNC(=O)[C@]1(C)CC[C@@H](Nc2ncc3c(Br)nn(-c4cc(Cl)cc(CS(C)(=O)=O)c4)c3n2)C1 [(1R,3R)-3-[[3-bromo-1-[3-chloro-5-(methylsulfonylmethyl)phenyl]pyrazolo [3,4-d]pyrimidin-6-yl]amino]-N,1-dimethyl-cyclopentanecarboxamide]
IC50 [1]: 0.025 to 0.2 µM

CNC(=O)[C@]1(C)CC[C@@H](Nc2ncc3c(Br)nn(-c4ccc(-c5nnc(C)[nH]5)cc4)c3n2)C1 [(1R,3R)-3-[[3-bromo-1-[4-(5-methyl-4H-1,2,4-triazol-3-yl)phenyl]pyrazolo[3,4-d]pyrimidin-6-yl]amino]-N,1-dimethyl-cyclopentanecarboxamide]
IC50 [1]: 0.025 to 0.2 µM

N#Cc1cc(-n2nc(Br)c3cnc(N[C@@H]4CC[C@@H](C(=O)NC[C@H]5COCCN5)C4)nc32)cc2cccnc12 [(1R,3R)-3-((3-bromo-1-(8-cyanoquinolin-6-yl)-1H-pyrazolo[3,4-d]pyrimidin-6-yl)amino)-N-(((S)-morpholin-3-yl)methyl)cyclopentane-1-carboxamide]
IC50 [1]: < 0.025 µM
